# Source: patent US8754057B2, “Inhibition of apoptosis-specific eIF-5A(eIF-5A1″) with antisense oligonucleotides and siRNA as anti-inflammatory therapeutics” (Senesco Technologies, Inc., priority 2003, dated 2014)
# Legend:
# [1] = tested on: lamina cribrosa cell line #506; format: cell-based, human; conditions: confluent LC cells, 48 hours; 50 μM camptothecin, 10 ng/ml TNF-α; Hoescht staining
# Procedure: FIG. 83 is a graph showing percent apoptosis of lamina cribrosa cell line #506 in response to treatment with camptothecin and TNF-α. Lamina cribrosa cell line #506 cells were seeded at 40,000 cells per well onto an 8-well culture slide. Three days later the confluent LC cells were treated with either 10 ng/ml TNF-α, 50 μM camptothecin, or 10 ng/ml TNF-α plus 50 μM camptothecin. An equivalent volume of DMSO, a vehicle control for camptothecin, was added to the untreated control cells. The cells were stained with Hoescht 33258 48 hours after treatment and viewed by fluorescence microscopy using a UV filter. Cells with brightly stained condensed or fragmented nuclei were counted as apoptotic.
# Apoptosis was induced in lamina cribrosa cells using a combination of 50 μM camptothecin (Sigma) and 10 ng/ml TNF-α (Leinco Technologies).
# Since TNF-α is believed to play an important role during the glaucomatous process, the susceptibility of LC cells to the cytotoxic effects of TNF-α was examined. Confluent LC cells were exposed to either camptothecin, TNF-α, or a combination of camptothecin and TNF-α for 48 hours (FIG. 83).
# [2] = tested on: apoptosis-specific eIF-5A; assay: Apoptosis-specific eIF-5A expression in LC cells during camptothecin or TNF-α plus camptothecin treatment; format: cell-based, human; conditions: LC cells #506; 50 μM camptothecin, 10 ng/ml TNF-α; 1, 4, 8, 24 hours
# Procedure: Lamina cribrosa cell #506 cells were seeded at 40,000 cells per well onto a 24-well plate. Three days later the LC cells were treated with either 50 μM camptothecin or 10 ng/ml TNF-α plus 50 μM camptothecin and protein lysate was harvested 1, 4, 8, and 24 hours later. An equivalent volume of DMSO was added to control cells as a vehicle control and cell lysate was harvested 1 and 24 hours later. 5 μg of protein from each sample was separated by SDS-PAGE, transferred to a PVDF membrane, and Western blot with anti-apoptosis-specific eIF-5A antibody. The bound antibody was detected by chemiluminescence and exposed to x-ray film. The membrane was then stripped and re-blotted with anti-β-actin as an internal loading control.
# Protein was isolated for Western blotting from lamina cribrosa cells growing on 24-well plates by washing the cells twice in PBS (8 g/L NaCl, 0.2 g/L KCl, 1.44 g/L Na2HPO4, and 0.24 g/L KH2PO4) and then adding 50 μl of lysis buffer [2% SDS, 50 mM Tris-HCl (pH 7.4)]. The cell lysate was collected in a microcentrifuge tube, boiled for 5 minutes and stored at −20° C. until ready for use. Protein concentrations were determined using the Bicinchoninic Acid Kit (BCA; Sigma). For Western blotting, 5 μg of total protein was separated on a 12 SDS-polyacrylamide gel. The separated proteins were transferred to a polyvinylidene difluoride membrane. […]
# [3] = tested on: corpus luteum; assay: DNA laddering in rat corpus luteum after PGF-2α; format: in vivo; conditions: superovulated rat corpus lutea; 0, 1, or 24 hours after injection
# Procedure: The degree of apoptosis was determined by DNA laddering. Genomic DNA was isolated from dispersed corpus lineal cells or from excised corpus luteum tissue using the QIAamp DNA Blood Kit (Qiagen) according to the manufacturer's instructions. Corpus luteum tissue was excised before the induction of apoptosis by treatment with PGF-2α, 1 hour and 24 hours after induction of apoptosis. The isolated DNA was end-labeled by incubating 500 ng of DNA with 0.2 μCi [α-^32P]dCTP, 1 mM Tris, 0.5 mM EDTA, 3 units of Klenow enzyme, and […] each of dATP, dGTP, and dTTP at room temperature for 30 minutes. Unincorporated nucleotides were removed by passing the sample through a 1 ml Sepadex G-50 column according to Sambrook et al. The samples were then resolved by Tris-acetate-EDTA (1.8%) gel electrophoresis. The gel was dried for 30 minutes at room temperature under vacuum and exposed to x-ray film at −80° C. for 24 hours.
# In one experiment, the degree of apoptosis in superovulated rat corpus lutea was examined either 0, 1, or 24 hours after injection with PGF-2α. In the 0 hour control, the ovaries were removed without PGF-2α injection. […] In this figure, the top panel is an autoradiograph of the Northern blot probed with the ^32P-dCTP-labeled 3′-untranslated region of rat corpus luteum apoptosis-specific DHS cDNA. The lower panel is the ethidium bromide stained gel of total RNA. […]
# [4] = tested on: apoptosis-specific eIF-5A and DHS; assay: Northern blot of rat corpus luteum RNA after PGF-2α; format: in vivo
# Text: […] of total RNA isolated from rat corpus luteum at various stages of apoptosis were separated on 1% denatured formaldehyde agarose gels and immobilized on nylon membranes. The full-length rat apoptosis-specific eIF-5A cDNA (SEQ ID NO:1) labeled with ^32P-dCTP using a random primer kit (Boehringer) was used to probe the membranes 7×10^7. Alternatively, full length rat DHS cDNA (SEQ ID NO:6) labeled with ^32P-dCTP using a random primer kit (Boehringer) was used to probe the membranes (7×10^7 cpm). The membranes were washed once with 1×SSC, 0.1% SDS at room temperature and three times with 0.2×SSC, 0.1% SDS at 65° C. The membranes were dried and exposed to X-ray film overnight at −70° C.
# [5] = tested on: apoptosis-specific eIF-5A; assay: Apoptosis-specific eIF-5A expression in U937 cells with PMA or LPS; format: cell-based, human
# Procedure: (§1) U937 cells were collected and counted 16 hours after electroporation. 200,000 cells in 1 ml of media were added to each well of 24-well plates. Macrophage differentiation was stimulated by adding phorbol 12-myristate 13-acetate (PMA; 100 ng/ml). After 48 h with PMA., >80% of the monocytes had transformed from cells in suspension (monocytes) to adherent cells (macrophages). At 48 hours the media and any non-adherent cells were removed and fresh RPMI media with 10% FBS (1 ml per well) was added. The cells were left for 24 hours in fresh media to become quiescent.
# 72 hours after PMA addition to U937 cells, lipopolysaccharide (LPS; 100 ng/ml; from E. coli, serotype 0111), interferonγ (IFNγ; 100 Units/ml), or a combination of LPS and IFNγ were added to the wells. Samples were collected before stimulator addition (72h), and at various times after addition as outlined in FIG. 108. To collect samples for analysis of cytokine secretion, the media from each well was transferred to clean microcentrifuge tubes and cleared of any debris by centrifugation at 13000×g for 3 mins. The media was stored at −20° C. in 200-250 μl aliquots prior to analysis. […]
# The protein concentration in the cell lysates was determined by bicinchoninic acid assays (BCA) with bovine serum albumin used as the standard. […]
# [6] = tested on: U937 cells; assay: Induction of macrophage differentiation in U937 cells; format: cell-based, human; conditions: 100 ng/ml PMA, 48 h
# Procedure: as §1
structure (smiles),measurement,setting,value
CC[C@@]1(O)C(=O)OCc2c1cc1n(c2=O)Cc2cc3ccccc3nc2-1 [camptothecin],cell death of LC cells,[1],approximately 30%
same,expression of apoptosis-specific eIF-5A protein,[2],did not alter significantly
CCCCC[C@H](O)/C=C/[C@@H]1[C@@H](C/C=C\CCCC(=O)O)[C@@H](O)C[C@H]1O [PGF-2α],laddering of low molecular weight DNA fragments,[3],discernible within 1 hour after induction of apoptosis and is pronounced by 24 hours
same,expression of DHS,[4],increased substantially within 1 hour of treatment
same,expression of apoptosis-specific eIF-5A,[4],significantly enhanced
"CCCCCCCCCCCCCC(=O)O[C@@H]1[C@@H](C)[C@@]2(O)[C@@H](C=C(CO)C[C@]3(O)C(=O)C(C)=C[C@@H]23)[C@@H]2C(C)(C)[C@]12OC(C)=O [PMA, phorbol 12-myristate 13-acetate]",apoptosis-specific eIF-5A expression,[5],upregulated
same,monocytes transformed from cells in suspension to adherent cells (macrophages),[6],> 80%
